Results reported in PubChem BioAssay AID449764 (Southern Research Specialized Biocontainment Screening …, 2010).

Test system: Mycobacterium tuberculosis H37Rv growth inhibition, no glycerol
Assay: Mycobacterium tuberculosis H37Rv growth inhibition, no glycerol, confirmatory dose response (AID 449764);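 further: growth read after 7 days of incubation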
Settings: for IC90: measured here: IC90 growth inhibition

SMILES	IC50 [µM]	IC90 [µM]
Cc1nc2ccc(OC(=O)c3ccccc3)cc2s1	88.1	> 100
O=C(Nc1cccc(Cl)c1)N1CCN(C/C=C/c2ccccc2)CC1	35	51.3
CCCCCCCCNC(=O)CCNC(=O)c1ccc(C(C)(C)C)cc1	34.3	41.9
O=C1CCc2ccc(OCCCCN3CCN(c4cccc(Cl)c4Cl)CC3)cc2N1	33.3	> 100
Cc1ccc(C)c(-c2nn(-c3cc(N4CCN(CCO)CC4)ccc3[N+](=O)[O-])c(=O)c3ccccc23)c1	22.6	25.7
CNC[C@H](Cc1cccc2ccccc12)NC[C@H](CCSC)NCC1CCC(C(C)(C)C)CC1 (stereo not given in full)	42.6	47.1
CCOC(=O)CSc1ncc(OC)c(Sc2ccc(OC)cc2)n1	18.1	54.3
O=C(CSC(=S)N1CCCC1)c1cc(Br)cc(Br)c1O	41.2	45.4
C[N+](C)(CCCCCC[N+](C)(C)CCCN1C(=O)c2cccc3cccc(c23)C1=O)CCCN1C(=O)c2cccc3cccc(c23)C1=O	3.64	5.15
CCOC(=O)c1ccc(N=C2C(=S)N(c3ccc(C(=O)OCC)cc3)C(=N)N2/N=C/c2ccccc2)cc1	99.7	> 100
COc1ccc(C2(c3ccc(OC)cc3)NC(=O)N(CC(=O)Nc3ccc(OC(F)F)cc3)C2=O)cc1	25	53.9
CC1(C)C2CCC1(C)C(OCC[N+](C)(C)CC(=O)OC1CCCCC1)C2 (stereo not given)	12	13.1
Cc1ccc(-n2nc(C)c3c(C)c(CCC(=O)Nc4ccc(CN5CCCC5)cc4)c(C)nc32)cc1	15.7	22.1
CCCOc1cccc(-c2nn(-c3ccccc3)cc2/C=C(\C#N)C(=O)NCCCn2ccnc2)c1	63.2	78.3
COc1ccc([C@H]2CC(=O)C=C(c3ccc4c5c(cccc35)CC4)C2)cc1		> 100
Nc1c(-c2ccccn2)cnn1-c1nc(-c2ccc(F)cc2)cs1	59.7	> 100
O=C(CCl)NCc1cc(-c2ccc(Cl)cc2)no1	0.35	> 100
O=C(c1cc2cc(Cl)ccc2[nH]1)N1CCN(Cc2ccc3c(c2)OCO3)CC1	24.2	> 25
CCn1c(=O)c(CCC(=O)N2CCN(c3ccccn3)CC2)c(C)c2c(C)nn(-c3cccc(C)c3)c21	21.8	> 100
Cc1cc(/C=N\NC(=O)c2cccs2)c(C)n1-c1ccc2ncccc2c1	36.8	60.2
c1ccc(CCN2CCN(c3ncnc4c3cnn4-c3ccccc3)CC2)cc1	47.7	91.1
CC(C)CNc1nnnc2c1sc1nc(N3CCOCC3)c3c(c12)CC(C)(C)SC3		> 100

SMILES	IC50 [µM]	IC90 [µM]
Cc1ccccc1NC1=C/C(=N\S(=O)(=O)c2cccs2)c2ccccc2C1=O	11.3	12.3
O=c1cc(CCl)nc(Cc2c(Cl)cccc2Cl)[nH]1	10.5	> 100
Cc1ccccc1N1CCN(c2ncnc3c2cnn3Cc2ccc(Cl)cc2)CC1	56.4	> 100
O=c1c(-c2cnn(-c3ccccc3)c2)coc2cc(O)ccc12	48.1	> 100
Cc1cc2nc(/N=C(\N)NC(=O)C(C)C)nc(C)c2cc1C	18.1	> 100
CCN(CCNCC(O)COc1ccccc1C(C)C)c1cccc(C)c1 (stereo not given)	22.8	26
CCN1/C(=C/C=C/c2oc3ccc(-c4ccccc4)cc3[n+]2CC)Oc2ccc(-c3ccccc3)cc21	5.81	6.37
O=C1C(Cl)=C(N2CCOCC2)C(=O)N1c1cccc(Cl)c1	6.48	12.6
CC(C)OC(=O)CCCCCN1C(=O)CSC1=S	11.5	19.2
CCc1c(C)sc2nc3c(C(=O)N4CCOCC4)cc(C(=O)c4cc(F)ccc4O)cn3c(=O)c12	82.2	> 100
CCc1ccc2nc(N3C(=O)C(O)=C(C(=O)c4ccco4)C3c3cccs3)sc2c1 (stereo not given)	86.3	95.2
Clc1ccc(-c2[nH]ncc2N=Nc2ccccc2)cc1	63.1	> 100
CCOC(=O)CSc1nc(C)c(C(=O)OCC)s1	9.22	16.2
CCc1ccc(C2=NN(c3ccc(S(N)(=O)=O)cc3)C(c3ccc(F)cc3)C2)cc1 (stereo not given)	40.5	53.3
Cc1ccc(S(=O)(=O)NNC(=O)c2cc([N+](=O)[O-])c(C)c([N+](=O)[O-])c2)cc1	10.5	13.8
O=[N+]([O-])c1ccc(Sc2cc[n+]([O-])c3ccccc23)c([N+](=O)[O-])c1	40.5	56.1
O=C(CSc1nc2ncc(Br)cc2[nH]1)Nc1ccc2c(c1)OCO2	25.1	> 100
Cc1cc2[nH]c3c(c[n+](C)c4ccccc34)c2cc1C	9.9	15.6
COc1ccccc1-n1cc2c([N+](=O)[O-])cc([N+](=O)[O-])cc2n1	1.98	5.89
CCc1ccc(Nc2n[n+](C)c(-c3ccncc3)s2)cc1	42.1	47.6
Clc1ccc(CCC(Cn2ccnc2)Sc2c(Cl)cccc2Cl)cc1 (stereo not given)	11.8	13.3
CN1CCN(Cn2cc(/C=C/C(=O)c3ccccc3)c3ccccc32)CC1	19.8	39.3

SMILES	IC50 [µM]	IC90 [µM]
CCOC(=O)c1nnc(-c2ccccc2)nc1NCc1ccccc1	19.2	> 100
O=c1c2cc(Br)cc(Br)c2oc2nc3n(c(=O)c12)CCCS3	10.4	23.3
CCn1cc([N+](=O)[O-])c(C(=O)N2N=C(c3ccc4ccccc4c3)CC2c2ccccc2O)n1 (stereo not given)	50.1	> 100
COc1ccccc1/C=C/C(=O)Nc1ccc(S(=O)(=O)Nc2cc(C)on2)cc1	28.5	57.1
CCOC(=O)c1cc(/C(C)=N/OC(=O)c2ccc(C(C)(C)C)cc2)on1	22.9	26.8
CN1C(=O)N(C)c2ccc(C=O)c3cccc1c23	45.5	51.4
COc1ccc(COc2cc(-c3cccc(OC)c3)nc3ccc(NC(=O)c4ccc(OC)cc4)cc23)cc1	24	> 100
Oc1ccc(F)c2cccnc12	5.94	6.56
Cc1cc(=O)n2cccc(O)c2n1	11.8	21.5
C/C(=N/NC(=O)c1ccccn1)c1c[nH]c2ccccc12	10.6	21.4
CC(NCCCOc1cccc2ccccc12)c1ccccc1 (stereo not given)	25.1	28
CN(C(=O)COC(=O)c1sc2ccccc2c1Cl)C1CCCCC1	9.63	14.2
CCCCCC(=O)N/N=C(\C)c1ccccn1	29	38.9
CCOc1ccc(-c2cnc(NCc3cccc4ccccc34)n2CCOC)cc1	7.03	11
COc1ccc2c3n(nc2c1)CCN=C3c1cc(Cl)c(N)c(Cl)c1	94.1	97.7
C=CCOc1ccc(C2=NOC(C(=O)Nc3ccc4c(c3)OCCO4)C2)cc1 (stereo not given)	41.4	60
CCOC(=O)c1cnc(-n2nc(C)cc2C)nc1NNc1cc(C)nc(-c2ccccc2)n1	74.6	93.7
O=C(c1cc([N+](=O)[O-])cc([N+](=O)[O-])c1)N(Cc1nnc(-c2ccccc2Cl)o1)C1CC1	15.8	23.5
O=[N+]([O-])c1cc(-c2ncccn2)c([N+](=O)[O-])s1	33.1	38.8
CC1CCc2c(C(=O)Nc3nccs3)csc2C1 (stereo not given)	41.9	80.3
Cc1nn(CCc2nn[nH]n2)c2nc(-c3ccc(Br)cc3)cc(C(F)(F)F)c12	8.29	16.8
CCOCCN1CCN(c2c(CC)c(C)nc3cc(-c4cc(OC)cc(OC)c4)nn23)CC1	24.5	38.2

SMILES	IC50 [µM]	IC90 [µM]
CCC(=O)c1ccc(OCC(=O)OCC(=O)c2cc(C)n(C3CC3)c2C)cc1	19.2	40.7
CCOC(=O)CSc1nnc(SCCN2C(=O)c3ccccc3C2=O)s1	8.73	22.4
CN(C)c1ccc(CNc2nc(-c3ccccc3)nn2S(C)(=O)=O)cc1	14.2	26.5
Cc1ccc(C)c(N2CCN(C(=S)Nc3ccc4nc(N5CCN(C)CC5)cc(C)c4c3)CC2)c1	35.7	55.9
CCc1nnc(NC(=O)CN2CCN(c3nc(-c4ccccc4)cs3)CC2)s1	42.6	92.6
COc1cc(OC)cc(-c2cc3nc(C)c(CCC(=O)NC(C)CCc4ccco4)c(C)n3n2)c1 (stereo not given)	53.2	90.5
COc1cccc2c1C(=O)c1c(O)c3c(c(O)c1C2=O)C[C@@](O)(C(=O)CO)C[C@@H]3O[C@H]1C[C@H](N)[C@@H](O)[C@H](C)O1	5.87	6.6
CCOC(=O)c1[nH]c(CN2CCN(c3ccc(OC)cc3)CC2)c(C(=O)OCC)c1C	34.1	48.6
O=C(c1cc2nc(-c3ccc(F)cc3)cc(C(F)(F)F)n2n1)N1CCCCC1c1cccnc1 (stereo not given)	20.7	29.2
COc1ccc(-c2cn3cc([N+](=O)[O-])ccc3n2)cc1OC	46.9	> 50
Cc1ccc(C2CC(c3cccs3)=NN2C(=O)CCl)cc1 (stereo not given)	1.42	1.77
CC(=O)c1cccc2c(O)c(C3=Nc4ccccc4C3=O)[nH]c12	11.5	12.9
CC(=O)c1sc(NC(=O)c2cc(=O)c3ccccc3o2)nc1C	18.4	> 100
NC(N)=Nc1nc(-c2ccccc2)c2ccccc2n1	90.1	> 100
Nc1cc(Cl)c2nonc2c1[N+](=O)[O-]	9.11	11.7
CC1(C)c2[nH]c3ccccc3c2C[C@@H]2C(=O)N(Cc3ccccc3F)C(=O)N21	49.3	> 50
Cc1ccccc1CSc1nsc(N)n1	9.03	24.1
O=C(/C=C/c1ncc(C(F)(F)F)cc1Cl)OCc1ccccc1	90.5	> 100
COc1cc(NC(=O)C/C(C)=N/NC(=O)c2ccccn2)c(OC)cc1Cl	5.83	9.98
O=C(CCCCCNc1nc(=S)[nH]c2ccccc12)N1CCN(c2ccccn2)CC1	90.2	> 100
